Earlier results on 2 compounds are cited in patent US20120141587A1, “COMPOSITIONS AND METHODS FOR TREATMENT OR PREVENTION OF POST-OPERATIVE ORGAN OR TISSUE INFLAMMATION” (priority 2009, published 2012).

In one series the test system is atrial fibrillation. Particulars: instilled into a canine's pericardial sac; Ayers et al. 1996.
In another series the test system is inducible atrial flutter. Particulars: oral; canine sterile pericarditis model; Goldstein et al. 2007.

Consider `CCCCc1oc2ccccc2c1C(=O)c1cc(I)c(OCCN(CC)CC)c(I)c1` [amiodarone], for which the “effect on atrial fibrillation” value in the series on atrial fibrillation is reported as “effectiveness in suppressing atrial fibrillation”. For `C[C@]12C=CC(=O)C=C1CC[C@@H]1[C@@H]2C(=O)C[C@@]2(C)[C@H]1CC[C@]2(O)C(=O)CO` [prednisone], the “effect on inducible atrial flutter” value in the series on inducible atrial flutter is listed as “prevent inducible atrial flutter”.
